Laboratory results published in PubChem BioAssay (NCI).
Several values for one entry are separate records, joined by “and”; a condition that tells them apart may be missing. Identical values can stand only once.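 Dose response: 5 concentrations. Exposure: 48 h. Format: 96-well plates. Endpoint: linear interpolation; highest concentration if not reached. GI50: concentration for 50% inhibition of growth. TGI is the concentration that stops growth completely.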 Where a SMILES comes first, the peptide text is derived from it. [ ]: non-standard residue; d: D form. Orn = NCCC[CH](N)C(=O)O

Test system: MDA-MB-468 breast
Test: growth of human tumour cells (NCI), 48 h

SMILES	GI50	TGI
Cc1cc(Cl)ccc1Nc1nc(C(F)(F)F)ccc1C(=O)N/N=C/c1c(Cl)cccc1Cl	274 nM	842 nM
C#CCOc1c(OC)cc(C(=O)/C(C)=C/c2cccc(N=[N+]=[N-])c2)cc1OC	85.5 nM	> 100000 nM
Cc1ccc(S(=O)(=O)C2=C3C(=C(c4ccccc4)c4ccccc43)CN(S(=O)(=O)c3ccc(C)cc3)C2)cc1	5010 nM	40600 nM
O=C(Nc1ncc(Cc2ccc(Cl)cc2)s1)c1ccc2c(c1)OCCO2	258 nM	–
COc1cc([C@@H]2c3cc4c(cc3[C@H](O)[C@H]3COC(=O)[C@@H]23)OCO4)cc(OC)c1OC	278 nM and 54.8 nM	2870 nM and 453 nM
O=C1C=CC(=O)N1CCCCCCCCCCN1C(=O)C=CC1=O	3220 nM	14000 nM
CN(C)CCOc1cccc(NC2=C(Cl)C(=O)C(Nc3cccc(OCCN(C)C)c3)=C(Cl)C2=O)c1	181 nM	358 nM
O=C(Nc1cccc(-n2cc(-c3ccncc3)c(-c3ccc(O)c(Cl)c3)n2)c1)Nc1ccc(Cl)c(C(F)(F)F)c1	2190 nM	6840 nM
COC(C(=O)[C@@H](O)[C@@H](C)O)[C@@H]1Cc2cc3cc(O[C@H]4C[C@@H](O[C@H]5C[C@@H](O)[C@H](O)C(C)O5)[C@H](O)C(C)O4)c(C)c(O)c3c(O)c2C(=O)[C@H]1O[C@H]1C[C@@H](O[C@H]2C[C@@H](O[C@H]3C[C@@H](O)[C@@H](O)C(C)O3)[C@@H](O)C(C)O2)[C@H](O)C(C)O1 (some centres not stated)	396 nM	4090 nM
CC(=O)/C=C/c1ccc(N(C)Cc2ccc(C(C)(C)C)cc2)cc1	59700 nM	215000 nM
C#Cc1cc(OC)c(C(=O)Nc2ccc(F)cc2C(=O)Nc2cccc(S(=O)(=O)C(F)(F)F)c2)cn1	1510 nM	3990 nM
COc1ccc(-c2oncc2-c2cc(OC)c3c(c2)OCO3)cc1	1350 nM	> 29700 nM
CC(C)CC1NC(=O)C(CCCN)NC(=O)C(C(C)C)NC(=O)C2CCCN2C(=O)C(Cc2ccccc2)NC(=O)C(CC(C)C)NC(=O)C(CCCN)NC(=O)C(C(C)C)NC(=O)C2CCCN2C(=O)C(Cc2ccccc2)NC1=O (configuration not stated) (cyclo(FPV[Orn]LFPV[Orn]L); configuration not given here)	3.94 nM	22.2 nM and 26.8 nM
Fc1ccc(-c2cc3nc(C(Cl)Cl)nc(-c4ccccc4)n3n2)cc1	269 nM	869 nM
Clc1cccc(Cc2cn3cc(-c4ccccc4)nc3s2)c1	4450 nM	> 100000 nM
COc1ccc2c(c1)N(CCO)C1=C(C(=O)OC1)C2c1cccc(Br)c1 (configuration not stated)	28.7 nM	128 nM
CCOC(=O)C1=C(N)Oc2cc(OC)ccc2C1c1ccc(F)c(F)c1 (configuration not stated)	352 nM	4000 nM
CCC1=C[C@H]2CN(CCc3c([nH]c4ccccc34)[C@@](C(=O)OC)(c3cc4c(cc3OC)N(C)[C@H]3[C@@](O)(C(=O)OC)[C@H](OC(C)=O)[C@]5(CC)[C@@H]6C[C@@H]6CN6CC[C@]43[C@@H]65)C2)C1	14.5 nM	6590 nM
O=C(Nc1cccc2ccccc12)c1cc2ccccc2cc1O	2450 nM	6330 nM
CCN1C(=O)N(CC)C2C1NN=C1SC(c3ccccc3)=CC(=O)N12 (configuration not stated)	231 nM	867 nM
Cc1cc(Cl)ccc1Nc1nc(C(F)(F)F)ccc1C(=O)N/N=C/c1ccc(F)cc1	706 nM	3260 nM
N=C1N=Nc2nc(C3(c4nc5n(c4O)C(=N)N=N5)Cc4ccccc4C3=O)c(O)n21 (configuration not stated)	49800 nM	> 100000 nM

SMILES	GI50	TGI
CCOC(=O)c1c2c(n3cccc(F)c13)C(=O)c1ncccc1C2=O	2870 nM	9680 nM
N=C(N)c1ccc(-c2ccc(-c3ccco3)o2)cc1F	1570 nM	3410 nM
CCNCCNc1cc(C2CCCC2)c(C#N)c2nc3ccccc3n12	1640 nM	3670 nM
COc1cc(C2c3cc4c(cc3OC(O)C2C)OCO4)cc(OC)c1O (configuration not stated)	10600 nM	> 100000 nM
Cc1ccc(C2CC(c3cccc(Nc4ccncc4)c3)=NN2c2ccc(Cl)cc2)cc1 (configuration not stated)	1670 nM	3250 nM
COC(=O)c1cccc(NC2=C(Cl)C(=O)c3nc(C)ccc3C2=O)c1	1610 nM	3280 nM
O=C(O)c1cn(C2CC2)c2cc(N3CCN(C(=O)Nc4nc(-c5ccc(Cl)cc5)cs4)CC3)c(F)cc2c1=O	1750 nM	8150 nM
COc1ccc(/C=C2\CCCC3=C2N=C2SC=NN2C3c2ccc(OC)c(OC)c2)cc1OC (configuration not stated)	2180 nM	25300 nM
CCOCC[P+](c1ccccc1)(c1ccccc1)c1ccccc1	2620 nM	24900 nM
COc1ccc2oc(-c3ccc(Cl)cc3)c(N3CCN(C)CC3)c2c1	1660 nM	4310 nM
COc1ccc(/C=C/C(=O)c2ccc(NC(=O)CSc3nnc(-c4cc(OC)c(OC)c(OC)c4)o3)cc2)cc1	2100 nM	5020 nM
COc1cccc(-c2cc(NCc3ccc4c(c3)OCO4)nc(N)n2)c1	220 nM	15100 nM
C#Cc1ccc(-n2c(/C=C/c3ccc4ccccc4n3)nc3ncccc3c2=O)cc1	232 nM	894 nM
NNc1nc(-c2ccccn2)nc2sc3c(c12)CCCCCC3	3670 nM	31700 nM
Cc1cccc2c(=O)c3c(sc12)c(NCCN)nc1ccccc13	700 nM	1580 nM
Cn1cc(C2=C(c3cccc(NCC(O)CO)c3)C(=O)NC2=O)c2cc(Cl)ccc21 (configuration not stated)	2110 nM	8430 nM
CCN(CC)CCCC(C)Nc1ccnc2cc(Cl)c(SCc3ccccc3)cc12 (configuration not stated)	1230 nM	2570 nM
CCN1CCN(Cc2ccc3cc(C(=O)Nc4cc(NC(=O)c5ccc6c(c5)OCCO6)ccc4F)ccc3n2)CC1	33.5 nM	181 nM
N=c1c2c(=O)n3c(nc2nc2sc4ccc(Cl)cc4n12)-c1ccccc1Sc1ccccc1-3	2670 nM	12400 nM
Cc1ccc(S(=O)(=O)N2C/C(=C\c3cc(F)cc(F)c3)C(=O)/C(=C/c3cc(F)cc(F)c3)C2)cc1	385 nM	1760 nM
O=CNc1ccc2c(c1)Cc1cc([N+](=O)[O-])ccc1-2	1880 nM	> 100000 nM
CCCNNC(=O)c1ccc(CNC(=O)/C=C/c2ccccc2)cc1	311 nM	> 31100 nM
